Measured values from US12441742B2, “Naphthyridine compounds as inhibitors of KRAS” (Incyte Corporation, priority 2021, dated 2025).

Assays:
[1] = target: T1, KRAS G12D (Homo sapiens, UniProt P01116, G12D); assay: KRAS_G12D GDP-GTP exchange assay (bodipy-GDP/GppNHp, SOS1); format: biochemical; conditions: bodipy-loaded KRAS G12D 2.5 nM, 4 hours pre-incubation, 2 hours exchange
Procedure: (§1) The inhibitor potency of the exemplified compounds was determined in a fluorescence based guanine nucleotide exchange assay, which measures the exchange of bodipy-GDP (fluorescently labeled GDP) for GppNHp (Non-hydrolyzable GTP analog) to generate the active state of KRAS in the presence of SOS1 (guanine nucleotide exchange factor). Inhibitors were serially diluted in DMSO and a volume of 0.1 μL was transferred to the wells of a black low volume 384-well plate. 5 μL/well volume of bodipy-loaded KRAS G12D diluted to 2.5 nM in assay buffer (25 mM Hepes pH 7.5, 50 mM NaCl, 10 mM MgCl2 and 0.01% Brij-35) was added to the plate and pre-incubated with inhibitor for 4 hours at ambient temperature. Appropriate controls (enzyme with no inhibitor or with a G12D inhibitor) were included on the plate. The exchange was initiated by the addition of a 5 μL/well volume containing 1 mM GppNHp and 300 nM SOS1 in assay buffer. The 10 μL/well reaction concentration of the bodipy-loaded KRAS G12D, GppNHp, and SOS1 were 2.5 nM, 500 uM, and 150 nM, respectively. The reaction plates were incubated at ambient temperature for 2 hours, a time estimated for complete GDP-GTP exchange in the absence of inhibitor. For the KRAS G12V mutant, similar guanine nucleotide exchange assays were used with 2.5 nM as final concentration for the bodipy loaded KRAS proteins and 3 hours incubation after adding GppNHp-SOS1 mixture. A cyclic peptide described to selectively bind G12D mutant (Sakamoto et al., BBRC 484.3 (2017), 605-611) or internal compounds with confirmed binding were used as positive controls in the assay plates. Fluorescence intensities were measured on a PheraStar plate reader instrument (BMG Labtech) with excitation at 485 nm and emission at 520 nm.
(§2) Either GraphPad prism or XLfit was used to analyze the data. The IC50 values were derived by fitting the data to a four parameter logistic equation producing a sigmoidal dose-response curve with a variable Hill coefficient. Prism equation: Y=Bottom+(Top−Bottom)/(1+10^((Log IC50−X)*Hill slope)); XLfit equation: Y=(A+((B−A)/(1+((X/C)^D)))) where X is the logarithm of inhibitor concentration and Y is the response.

[2] = target: T2, KRAS G12V (Homo sapiens, UniProt P01116, G12V); assay: KRAS_G12V GDP-GTP exchange assay (bodipy-GDP/GppNHp, SOS1); format: biochemical; conditions: bodipy loaded KRAS G12V 2.5 nM, 3 hours incubation after GppNHp-SOS1; read-out: G12V_exchange (KRAS_G12V exchange assay IC50)
Procedure: as §1, §2

[3] = target: T2, KRAS G12V; assay: KRAS_G12V pERK assay; format: cell-based; conditions: read-out: G12V_pERK (KRAS_G12V pERK assay IC50)
[4] = target: T1, KRAS G12D; assay: KRAS_G12D cellular pERK HTRF assay; format: cell-based; set-up: CRL-1997; host or cells: A427 or HPAF-II; conditions: KRAS G12D cells (A427, HPAF-II), 2 hours; for IC50: read-out: G12D_pERK (KRAS_G12D pERK assay IC50)
Procedure: MIA PaCa-2 (KRAS G12C; ATCC® CRL-1420), A427 (KRAS G12D; ATCC® HTB53), HPAF-II (KRAS G12D; ATCC® CRL-1997) and NCI-H838 (KRAS WT; ATCC® CRL-5844) cells are purchased from ATCC and maintained in RPMI 1640 media supplemented with 10% FBS (Gibco/Life Technologies). The cells are plated at 5000 cells per well (8 uL) into Greiner 384-well low volume, flat-bottom, tissue culture treated white plates and incubated overnight at 37° C., 5% CO2. The next morning, test compound stock solutions are diluted in media at 3x the final concentration, and 4 uL are added to the cells. The plate is mixed by gentle rotation for 30 seconds (250 rpm) at room temperature. The cells are incubated with the KRAS G12C and G12D compounds for 4 hours or 2 hours respectively at 37° C., 5% CO2.
4 uL of 4x lysis buffer with blocking reagent (1:25) (Cisbio) are added to each well and plates are rotated gently (300 rpm) for 30 minutes at room temperature. 4 uL per well of Cisbio anti Phospho-ERK 1/2 d2 is mixed with anti Phospho-ERK 1/2 Cryptate (1:1) are added to each well, mixed by rotation and incubated overnight in the dark at room temperature. Plates are read on the Pherastar plate reader at 665 nm and 620 nm wavelengths. IC50 determination is performed by fitting the curve of inhibitor percent inhibition versus the log of the inhibitor concentration using the GraphPad Prism 7 software.

T2 sequence (P01116 1-188 isoform P01116-2 G12V): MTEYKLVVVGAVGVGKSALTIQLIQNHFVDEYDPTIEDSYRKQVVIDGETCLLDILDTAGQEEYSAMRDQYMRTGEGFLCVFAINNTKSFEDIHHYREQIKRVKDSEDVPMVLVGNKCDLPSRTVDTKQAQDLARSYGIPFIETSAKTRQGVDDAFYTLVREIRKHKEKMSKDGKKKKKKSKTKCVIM
T1 sequence (P01116 1-188 isoform P01116-2 G12D): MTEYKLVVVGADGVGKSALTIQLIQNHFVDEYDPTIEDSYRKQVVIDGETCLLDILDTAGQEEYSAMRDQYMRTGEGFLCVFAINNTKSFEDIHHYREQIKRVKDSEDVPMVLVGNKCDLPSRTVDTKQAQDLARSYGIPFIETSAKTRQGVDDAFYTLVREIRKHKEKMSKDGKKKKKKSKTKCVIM

SMILES | G12D_exchange (KRAS_G12D exchange assay IC50) [1] | IC50 [2] [nM] | IC50 [3] [nM] | IC50 [4] [nM] | G12D_pERK (KRAS_G12D pERK assay IC50) [4] | IC50 ([1]; read-out: G12D_exchange (KRAS_G12D exchange assay IC50)) [nM]
Cc1cc2c(O[C@@H](C)[C@@H]3CCCN3C)nc3c(F)c(-c4cc(O)cc5ccccc45)ncc3c2n1C1C2CNC1C2 (single isomer, unassigned) [Example 3a] | † | ≤ 100 | 100 to 1000 | – | † | –
C[C@H](Oc1nc2c(F)c(-c3cccc4c3OCCC4)ncc2c2c1cc(-c1cn(C)nc1C(=O)N(C)C)n2[C@H]1[C@H]2CN[C@@H]1C2)[C@@H]1CCCN1C [Example 27, 4-(1-((1R,4R,5S)-2-azabicyclo[2.1.1]hexan-5-yl)-7-(chroman-8-yl)-6-fluoro-4-((S)-1-((S)-1-methylpyrrolidin-2-yl)ethoxy)-1H-pyrrolo[3,2-c][1,6]naphthyridin-2-yl)-N,N,1-trimethyl-1H-pyrazole-3-carboxamide] | † | ≤ 100 | 1000 to 5000 | 1000 to 5000 | – | –
Cc1cc2c(O[C@@H](C)[C@@H]3CCCN3C)nc3c(F)c(-c4cc(O)cc5ccccc45)ncc3c2n1C1C2CNC1C2 (single isomer, unassigned) [Example 3b] | † | 100 to 1000 | 5000 to 10000 | 100 to 1000 | – | –
C[C@H](Oc1nc2c(F)c(-c3cccc4c3OCCC4)ncc2c2c1cc(C1CC[C@H]3COC(=O)N13)n2[C@H]1[C@H]2CN[C@@H]1C2)[C@@H]1CCCN1C (single isomer, unassigned) [Example 26b] | – | 100 to 1000 | – | 1000 to 5000 | – | 100 to 1000
Cc1cc2c(OCC34CCCN3CCC4)nc3c(F)c(-c4cc(O)cc5ccccc45)ncc3c2n1[C@@H]1[C@@H]2CN[C@H]1C2 (relative stereo) [Example 4, 4-(1-((endo)-2-azabicyclo[2.1.1]hexan-5-yl)-6-fluoro-2-methyl-4-((tetrahydro-1H-pyrrolizin-7a(5H)-yl)methoxy)-1H-pyrrolo[3,2-c][1,6]naphthyridin-7-yl)naphthalen-2-ol] | † | ≤ 100 | 1000 to 5000 | 100 to 1000 | – | –
COC(=O)N1CCC[C@@H]1c1cc2c(O[C@@H](C)CN3CCCC3)nc3c(F)c(-c4cccc5scnc45)ncc3c2n1[C@H]1[C@H]2CN[C@@H]1C2 [Example 25, methyl (R)-2-(7-(benzo[d]thiazol-4-yl)-1-((1R,4R,5S)-2-azabicyclo[2.1.1]hexan-5-yl)-6-fluoro-4-(((S)-1-(pyrrolidin-1-yl)propan-2-yl)oxy)-1H-pyrrolo[3,2-c][1,6]naphthyridin-2-yl)pyrrolidine-1-carboxylate] | † | 100 to 1000 | 1000 to 5000 | – | † | –
C[C@H](Oc1nc2c(F)c(-c3cccc4c3OCCC4)ncc2c2c1cc(C1CC[C@H]3COC(=O)N13)n2[C@H]1[C@H]2CN[C@@H]1C2)[C@@H]1CCCN1C (single isomer, unassigned) [Example 26a] | † | ≤ 100 | 1000 to 5000 | – | † | –

The next lines start with the values.

G12D_exchange (KRAS_G12D exchange assay IC50) [1] | IC50 [2] [nM] | IC50 [3] [nM] | IC50 [4] [nM] | G12D_pERK (KRAS_G12D pERK assay IC50) [4] | IC50 ([1]; read-out: G12D_exchange (KRAS_G12D exchange assay IC50)) [nM] | SMILES
† | ≤ 100 | 5000 to 10000 | 100 to 1000 | – | – | COC(=O)CCc1cc2c(OC[C@@]34CCCN3C[C@H](F)C4)nc3c(F)c(-c4cc(O)cc5ccccc45)ncc3c2n1C1C2CNC1C2 (single isomer, unassigned) [Example 2b]
† | ≤ 100 | – | 1000 to 5000 | – | – | C[C@H](Oc1nc2c(F)c(-c3cc(O)cc4ccccc34)ncc2c2c1nc(CCC(=O)N(C)C)n2C1C2CNC1C2)[C@@H]1CCCN1C (single isomer, unassigned) [Example 9a]
† | ≤ 100 | 100 to 1000 | – | – | – | COC(=O)CCc1cc2c(O[C@@H](C)[C@@H]3CCCN3C)nc3c(F)c(-c4cc(O)cc5ccccc45)ncc3c2n1C1C2CNC1C2 (single isomer, unassigned) [Example 1b]
† | ≤ 100 | 1000 to 5000 | – | † | – | COC(=O)CCc1cc2c(O[C@@H](C)[C@@H]3CCCN3C)nc3c(F)c(-c4cc(O)cc5ccccc45)ncc3c2n1C1C2CNC1C2 (single isomer, unassigned) [Example 1a]
† | 1000 to 5000 | – | 5000 to 10000 | – | – | CN(C)C(=O)CCc1nc2c(N3CC(N(C)C)C3)nc3cc(-c4cc(O)cc5ccccc45)c(CCC#N)nc3c2n1C1C2CNC1C2 (single isomer, unassigned) [Example 17b, 3-(1-((endo)-2-azabicyclo[2.1.1]hexan-5-yl)-8-(2-cyanoethyl)-4-(3-(dimethylamino)azetidin-1-yl)-7-(3-hydroxynaphthalen-1-yl)-1H-imidazo[4,5-c][1,5]naphthyridin-2-yl)-N,N-dimethylpropanamide]
† | 100 to 1000 | – | 1000 to 5000 | – | – | COC(=O)CCc1nc2c(N3CC(N(C)C)C3)nc3c(F)c(-c4cc(O)cc5ccccc45)ncc3c2n1[C@@H]1[C@@H]2CN[C@H]1C2 (relative stereo) [Example 11, methyl 3-(1-((endo)-2-azabicyclo[2.1.1]hexan-5-yl)-4-(3-(dimethylamino)azetidin-1-yl)-6-fluoro-7-(3-hydroxynaphthalen-1-yl)-1H-imidazo[4,5-c][1,6]naphthyridin-2-yl)propanoate]
